Test results from patent US20180148418A1, “AMIDO-SUBSTITUTED CYCLOHEXANE DERIVATIVES” (Bayer Pharma Aktiengesellschaft, priority 2015, published 2018).

Legend:
[1] = test system: wildtype Wnt signaling cascade; test: HEK293 TOP assay (Super TopFlash luciferase reporter, Wnt-3a stimulated); format: cell-based; settings: Homo sapiens, HEK293, 16 h, HEK293 TOP reporter cells, Wnt3a at EC50, 16 hours
Summary of the method: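 HEK293 cells stably carrying Super TopFlash (TOP) run in parallel with FOP cells, 10000/well plated 24 h ahead, stimulated with recombinant human Wnt-3a. Compounds tested 50 μM to 15 nM in 3.16-fold steps in CAFTY buffer pH 7.4 with 2 mM Ca^2+ and 0.01% BSA; luciferase read-out.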

TNKS2 = target: T1, TNKS2 (Homo sapiens, UniProt Q9H2K2); test: TNKS2 Assay B (auto-parsylation, [3H]-NAD+ SPA); format: biochemical; settings: 6 nM TNKS2, auto-parsylation, over night at room temperature
T1 construct: purchased BPS Bioscience, San Diego, USA 80572 (TNKS2 Histone Ribosylation Assay Kit)
T1 sequence (Q9H2K2 1-1166): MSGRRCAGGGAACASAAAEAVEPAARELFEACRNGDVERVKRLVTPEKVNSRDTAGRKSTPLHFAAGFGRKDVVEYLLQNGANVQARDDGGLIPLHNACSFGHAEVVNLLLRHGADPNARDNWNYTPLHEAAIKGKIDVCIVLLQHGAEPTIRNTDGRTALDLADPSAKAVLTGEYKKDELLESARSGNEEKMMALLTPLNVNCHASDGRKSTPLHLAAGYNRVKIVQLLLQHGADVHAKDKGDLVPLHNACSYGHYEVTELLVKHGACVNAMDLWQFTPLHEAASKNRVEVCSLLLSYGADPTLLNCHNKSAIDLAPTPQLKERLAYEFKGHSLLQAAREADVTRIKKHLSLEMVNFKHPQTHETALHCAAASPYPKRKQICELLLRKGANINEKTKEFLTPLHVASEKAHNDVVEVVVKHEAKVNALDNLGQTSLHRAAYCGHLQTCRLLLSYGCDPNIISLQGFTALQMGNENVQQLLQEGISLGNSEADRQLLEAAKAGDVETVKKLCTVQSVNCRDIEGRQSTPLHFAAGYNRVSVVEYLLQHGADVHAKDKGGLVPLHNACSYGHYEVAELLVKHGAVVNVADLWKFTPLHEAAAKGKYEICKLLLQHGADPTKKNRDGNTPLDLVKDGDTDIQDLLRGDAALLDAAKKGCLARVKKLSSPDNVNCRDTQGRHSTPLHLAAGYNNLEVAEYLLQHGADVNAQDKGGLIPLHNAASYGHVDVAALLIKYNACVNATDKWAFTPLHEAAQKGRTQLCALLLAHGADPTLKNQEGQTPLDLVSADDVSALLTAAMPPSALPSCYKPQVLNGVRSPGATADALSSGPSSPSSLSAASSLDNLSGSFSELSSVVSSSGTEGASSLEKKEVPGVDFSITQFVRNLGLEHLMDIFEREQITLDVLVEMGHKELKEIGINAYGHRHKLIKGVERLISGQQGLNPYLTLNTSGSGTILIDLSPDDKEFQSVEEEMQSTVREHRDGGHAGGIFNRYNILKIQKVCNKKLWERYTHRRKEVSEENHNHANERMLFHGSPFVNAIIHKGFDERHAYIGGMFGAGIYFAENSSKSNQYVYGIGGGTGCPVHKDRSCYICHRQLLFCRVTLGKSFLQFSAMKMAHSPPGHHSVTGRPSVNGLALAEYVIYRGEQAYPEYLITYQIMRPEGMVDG

| SMILES | IC50 [1] [nM] | IC50 (TNKS2) [nM] |
| --- | --- | --- |
| COC(=O)c1cc(C)nc2c(C(=O)N[C@H]3CC[C@H](C(=O)Nc4c(F)cc(F)cc4Cl)CC3)cnn12 [Example 351, methyl 3-({trans-4-[(2-chloro-4,6-difluorophenyl)carbamoyl]cyclohexyl}carbamoyl)-5-methylpyrazolo[1,5-a]pyrimidine-7-carboxylate] | 6700 | 56 |
| COC(=O)c1cc(C)nc2c(C(=O)N[C@H]3CC[C@H](C(=O)Nc4ccc(F)cc4Cl)CC3)cnn12 [Example 352, methyl 3-({trans-4-[(2-chloro-4-fluorophenyl)carbamoyl]cyclohexyl}carbamoyl)-5-methylpyrazolo[1,5-a]pyrimidine-7-carboxylate] | 7500 | 120 |
| Cc1c(C(C)(C)O)cnc2c(C(=O)N[C@H]3CC[C@H](C(=O)Nc4ccc(F)cc4Cl)CC3)cnn12 [Example 359, N-{trans-4-[(2-chloro-4-fluorophenyl)carbamoyl]cyclohexyl}-6-(2-hydroxypropan-2-yl)-7-methylpyrazolo[1,5-a]pyrimidine-3-carboxamide] | 4000 | > 10000 |
| O=C(N[C@H]1CC[C@H](C(=O)Nc2ccc(F)cc2Cl)CC1)c1cnc2ccc(O)nn12 [Example 360, N-{trans-4-[(2-chloro-4-fluorophenyl)carbamoyl]cyclohexyl}-6-hydroxyimidazo[1,2-b]pyridazine-3-carboxamide] | 10000 | 1700 |
| Cc1nc2c(C(=O)N[C@H]3CC[C@H](C(=O)Nc4c(F)cc(F)cc4Cl)CC3)cnn2c2c1CCC2 [Example 363, N-{trans-4-[(2-chloro-4,6-difluorophenyl)carbamoyl]cyclohexyl}-5-methyl-7,8-dihydro-6H-cyclopenta[e]pyrazolo[1,5-a]pyrimidine-3-carboxamide] | 21 | 19 |
